# According to patent publication US9056110B2, “Substituted pyrimidinone-phenyl-pyrimidinyl compounds” (Confluence Life Sciences, Inc., priority 2011, dated 2015):
# Columns and labels:
# p38α/MK2 = p38α/MK2 (Homo sapiens, UniProt Q16539); assay: p38α/MK2 cascade assay (IMAP, Hsp27 peptide phosphorylation); assay type: biochemical; details: for IC50: p38α/MK2 cascade, Hsp27 peptide 1 μM, MgATP 10 μM, 120 minutes, read-out: p38/MK2 IC50; for Selectivity Ratio: ratio of p38α/PRAK:p38α/MK2 IC50 values
# Chain of p38α/MK2 (Q16539 whole entry): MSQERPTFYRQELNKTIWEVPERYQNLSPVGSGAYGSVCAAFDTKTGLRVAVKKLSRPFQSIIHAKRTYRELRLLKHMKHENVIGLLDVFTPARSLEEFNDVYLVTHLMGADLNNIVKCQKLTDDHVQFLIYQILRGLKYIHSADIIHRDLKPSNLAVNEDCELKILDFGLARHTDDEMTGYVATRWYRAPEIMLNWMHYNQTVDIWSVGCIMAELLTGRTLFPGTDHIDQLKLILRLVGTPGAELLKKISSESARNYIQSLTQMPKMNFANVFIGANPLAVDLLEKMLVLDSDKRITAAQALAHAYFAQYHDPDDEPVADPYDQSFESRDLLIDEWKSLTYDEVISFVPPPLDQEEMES
# Chain of p38α/MK2 (P49137 whole entry partner): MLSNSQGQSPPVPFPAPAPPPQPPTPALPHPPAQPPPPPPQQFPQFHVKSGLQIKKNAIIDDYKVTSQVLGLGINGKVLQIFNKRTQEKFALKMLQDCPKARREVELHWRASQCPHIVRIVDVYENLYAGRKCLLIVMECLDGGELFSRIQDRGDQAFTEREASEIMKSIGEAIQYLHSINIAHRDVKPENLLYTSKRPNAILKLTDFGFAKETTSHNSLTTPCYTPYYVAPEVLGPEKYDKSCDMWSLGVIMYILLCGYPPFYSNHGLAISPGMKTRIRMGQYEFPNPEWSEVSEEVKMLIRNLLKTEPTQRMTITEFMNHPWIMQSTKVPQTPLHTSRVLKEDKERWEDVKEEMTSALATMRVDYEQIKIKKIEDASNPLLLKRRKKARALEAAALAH
# Procedure: (§1) P38 inhibitory potency and P38/MK2 substrate selectivity: The novel, MK2 substrate-selective inhibitory mechanism of compounds is evaluated in enzyme assays that compare inhibitor potency in blocking p38/MK2 versus p38/PRAK induced phosphorylation of an HSP-27 derived peptide substrate. The ability of compounds to inhibit activated phospho-p38α is evaluated using a p38α/MK2 and a p38α/PRAK cascade assay format. The kinase activity of p38α is determined by its ability to phosphorylate and activate GST-MK2 or GST-PRAK. The kinase activity of activated MK2 and PRAK is followed by measuring the phosphorylation of a fluorescently-labeled, peptide substrate based on the sequence of Hsp27 (FITC-KKKALSRQLSVAA). The phosphorylation of the Hsp27 peptide is quantified using IMAP assay technology (Molecular Devices) and the Analyst HT plate reader (LJL Biosystems). Kinase reactions are carried out in a 384-well plate (Corning 3575) in 20 mM HEPES pH 7.5, 10 mM MgCl2, 0.0005% Tween-20, 0.01% BSA, 1 mM DTT, and 2% DMSO. The inhibitor concentration varies between 0.5-30,000 nM, while the Hsp27 peptide substrate and MgATP are held constant at 1 μM and 10 μM, respectively. Activated p38α is added to a final concentration of 20 pM for reactions with 1 nM nonphosphorylated 1 nM GST-MK2. For the p38α/PRAK cascade, unactivated GST-PRAK is held constant at 10 nM while p38α is added to a final concentration of […]. Kinase reactions are incubated at room temperature and quenched after 120 minutes by the addition of 1× Progressive Binding Buffer A containing 1×IMAP beads (IMAP FP Progressive Screening Express Kit, Molecular Devices Catalog Number R8127). Inhibitor potency is calculated by fitting dose-response data to the 4-parameter logistical IC50 equation. The substrate selectivity is calculated as a ratio of p38α/PRAK:p38α/MK2 IC50 values. A substrate selective inhibitor will have a p38α/PRAK:p38α/MK2 IC50 ratio of >2 while a classical p38 inhibitor will have a ratio of between 0.5-2. […] By way of example, the enhanced therapeutic benefit could be associated with a reduction in inhibition of p38 mediated anti-inflammatory functions, such as IL-10 production and TAB1 phosphorylation. An increased safety profile is expected based, for example, on a reduced inhibition of p38 substrates, such as PPARg and CDC25 phosphatase and PLA2 involved in gluconeogenesis and cell cycle regulation, respectively.
# p38α/PRAK = p38α/PRAK (Homo sapiens, UniProt Q16539); assay: p38α/PRAK cascade assay (IMAP, Hsp27 peptide phosphorylation); assay type: biochemical; details: Hsp27 peptide 1 μM, MgATP 10 μM, 120 minutes, read-out: p38/PRAK IC50
# Chain of p38α/PRAK (Q16539 whole entry): as the sequence (Q16539 whole entry) above
# Procedure: as §1
# TNFα = assay: LPS stimulated TNFα production in human PBMCs (ELISA); assay type: cell-based; details: PBMC, LPS 0.1 μg/ml, 18-24 hours, read-out: PBMC Cell, TNFα IC50
# Procedure: Evaluation of the potency and efficacy of p38 inhibitors to block cytokine production is carried out using the human U937 cell line and purified human PBMCs (peripheral blood mononuclear cells). The U937 human pre-monocytic cell line is obtained from the American Type Culture Collection (Rockville, Md.). These cells are differentiated to a monocytic/macrophage phenotype as described by Burnette (Burnette et al., (2009). SD0006: a potent, selective and orally available inhibitor of p38 kinase, Pharmacology 84(1):42-60). Differentiated U937 cells are seeded into 96-well tissue culture plates (200,000 cells/well) in complete media. After 24 hours, the cells are pretreated for 60 minutes in the presence or absence of compound and then stimulated with LPS (lipopolysaccharide) (0.1 μg/mL) for 4 hours. Culture media are then collected for determination of TNFα or IL-6 levels by ELISA. Human PBMCs are isolated from leukopacks as described by Burnette (Burnette et al., (2009), op. cit.). The cells are seeded into 96-well tissue culture plates (200,000 cells/well) in complete media. After a one hour recovery period at 37° C., 5% CO2, the cells are pretreated for 60 minutes in the presence or absence of compound and then stimulated with LPS (0.1 μg/ml) for 18-24 hours. Culture media are then collected for determination of TNFα and IL1β by ELISA. Cytokine concentrations are extrapolated from recombinant protein standard curves using a four-parameter logistic model and solving for IC50 after iterating to the best least-squares fit. p38 inhibitors will show a dose dependent inhibition of LPS stimulated TNFα, and IL6 in differentiated U937 cells and a dose dependent inhibition of LPS stimulated TNFα, IL6 and IL1b in human PBMCs. As drugs that down-regulate TNFα, IL6 and IL1b are efficacious in a number of autoimmune, autoinflammatory inflammatory, cardiovascular and oncological diseases, it would be expected that p38 drugs that inhibit these cytokines and other enzymes and mediators of disease will be effective drugs. Species compounds of Formula (I), described hereinabove, evaluated in this assay, are expected to provide a therapeutic benefit in the treatment of p38 kinase mediated diseases, including lymphoma and inflammation.
SMILES,IC50 (p38α/MK2) [nM],Selectivity Ratio (p38α/MK2),IC50 (p38α/PRAK) [nM],IC50 (TNFα) [nM]
"Cc1cccc(COc2nc(C)n(-c3cc(-c4ccnc(C(C)(C)O)n4)ccc3C)c(=O)c2Br)n1 [Example 13, 5-bromo-3-(5-(2-(2-hydroxypropan-2-yl)pyrimidin-4-yl)-2-methylphenyl)-2-methyl-6-((6-methylpyridin-2-yl)methoxy)pyrimidin-4(3H)-one]",83,15.4,1280,140
"Cc1ccc(-c2ccnc(C(C)(C)O)n2)cc1-n1c(C)nc(OCc2cccc(C(F)(F)F)n2)c(Cl)c1=O [Example 17, 5-chloro-3-(5-(2-(2-hydroxypropan-2-yl)pyrimidin-4-yl)-2-methylphenyl)-2-methyl-6-((6-(trifluoromethyl)pyridin-2-yl)methoxy)pyrimidin-4(3H)-one]",1700,>17.6,> 30000,3750
"Cc1ccc(-c2ccnc(C(C)(C)O)n2)cc1-n1c(C)nc(OCc2ccc(F)cc2F)c(Br)c1=O [Example 1, 5-bromo-6-((2,4-difluorobenzyl)oxy)-3-(5-(2-(2-hydroxypropan-2-yl)pyrimidin-4-yl)-2-methylphenyl)-2-methylpyrimidin-4(3H)-one]",15,5.1,76,12
"Cc1ccc(-c2ccnc(C(C)(C)O)n2)cc1-n1c(C)nc(OCc2ccc(F)cc2F)c(Cl)c1=O [Example 2, 5-chloro-6-(2,4-difluoro-benzyloxy)-3-{5-[2-(1-hydroxy-1-methyl-ethyl)-pyrimidin-4-yl]-2-methyl-phenyl}-2-methyl-3H-pyrimidin-4-one]",15,5.5,83,9.8
"COc1cccc(COc2nc(C)n(-c3cc(-c4ccnc(C(C)(C)O)n4)ccc3C)c(=O)c2Cl)c1 [Example 7, 5-chloro-3-(5-(2-(2-hydroxypropan-2-yl)pyrimidin-4-yl)-2-methylphenyl)-6-((3-methoxybenzyl)oxy)-2-methylpyrimidin-4(3H)-one]",62,24,1490,94
"Cc1nc(COc2nc(C)n(-c3cc(-c4ccnc(C(C)(C)O)n4)ccc3C)c(=O)c2Cl)co1 (racemic) [Example 8, 5-chloro-3-(5-(2-(2-hydroxypropan-2-yl)pyrimidin-4-yl)-2-methylphenyl)-2-methyl-6-((2-methyloxazol-4-yl)methoxy)pyrimidin-4(3H)-one]",121,18.1,2190,158
"Cc1ccc(-c2ccnc(C(C)(C)O)n2)cc1-n1c(C)nc(OCc2ncc(F)cc2F)c(Cl)c1=O [Example 21, (−)-5-chloro-6-((3,5-difluoropyridin-2-yl)methoxy)-3-(5-(2-(2-hydroxypropan-2-yl)pyrimidin-4-yl)-2-methylphenyl)-2-methylpyrimidin-4(3H)-one]",33,7.63,252,96
"Cc1cccc(COc2nc(C)n(-c3cc(-c4ccnc(C(C)(C)O)n4)ccc3C)c(=O)c2Cl)n1 (racemic) [Example 14, 5-chloro-3-(5-(2-(2-hydroxypropan-2-yl)pyrimidin-4-yl)-2-methylphenyl)-2-methyl-6-((6-methylpyridin-2-yl)methoxy)pyrimidin-4(3H)-one]",184,17.9,3300,250
